For 15 compounds, EC50 results are on record in patent US20260007758A1, “SO[…]-2 RECEPTOR (SST2R) NON-PEPTIDE DRUG CONJUGATES AND USES THEREOF” (Crinetics Pharmaceuticals, Inc., priority 2024, published 2026).

Format in all cases: cell-based
In assay [1] the target is T1, SST2 (Homo sapiens, UniProt P30874).
T1 construct: host or cells: PathHunter CHO-K1 SST2 cells
Kind of assay: PathHunter CHO-K1 SST2 Internalization Assay. The note with it: PathHunter CHO-K1 SST2 cells; 90 min at 37 C; luminescence; read-out: Internalization EC50. An outline of the steps: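 CHO-K1 cells expressing human SST2, 2500 cells/well, grown 48 h, then exposed 90 min at 37 C to 11-point 1:3 NDC dilutions (final top 10 uM). Beta-Glo luminescence after 60 min at room temperature; four-parameter IC50, duplicate mean, background-corrected.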

In assay [2] the target is T2, human somatostatin receptor subtype 2 (Homo sapiens, UniProt P30874).
T2 construct: expressed in transfected cells
T2 sequence (P30874 whole entry): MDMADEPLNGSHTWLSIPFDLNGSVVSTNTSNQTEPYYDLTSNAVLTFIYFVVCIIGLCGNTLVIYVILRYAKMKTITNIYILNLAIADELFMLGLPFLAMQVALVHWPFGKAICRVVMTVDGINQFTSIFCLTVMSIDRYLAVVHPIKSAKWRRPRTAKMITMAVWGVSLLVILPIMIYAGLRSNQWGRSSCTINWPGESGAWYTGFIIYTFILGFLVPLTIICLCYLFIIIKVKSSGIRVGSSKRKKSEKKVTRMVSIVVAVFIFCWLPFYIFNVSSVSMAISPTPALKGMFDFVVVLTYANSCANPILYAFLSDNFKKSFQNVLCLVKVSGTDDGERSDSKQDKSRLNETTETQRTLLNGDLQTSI
As to the kind of experiment: Functional assay for SSTR2 agonists (HTRF cAMP). The note with it: CHO-K1 cells stably expressing human SST2; NKH477-stimulated cAMP; 20 min at 37 C; read-out: hSST2 cAMP Avg EC50. An outline of the steps:
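CHO-K1 cells stably expressing human SSTR2 treated with compound (typically 0-10,000 nM final) for 20 min at 37 °C. Lysate cAMP measured by HTRF (665/620 nm ratio), converted via standard curve; EC50 from cAMP vs concentration.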

The subject of assay [3] is NCI-H524 human small cell lung cancer cells. As to the kind of experiment: H524 assay: inhibition of cell proliferation (CellTiter Glo). The note with it: 2 h treatment, washout, additional 70 h incubation. An outline of the steps:
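NCI-H524 cells were exposed for 2 h to NDC in an 11-point two-fold series starting at 1 uM. The drug was then washed out and cells grew a further 70 h. CellTiter Glo luminescence gave % inhibition versus untreated control, and IC50 came from a four-parameter nonlinear regression.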
For orientation: ATP-based viability assays read luminescence as a measure of living cells.

SMILES strings stand for the structures.

T1 sequence (P30874 whole entry): as above

In general, EC50 refers to the concentration giving half of the maximal effect. `CC[C@H](C)[C@@H]([C@@H](CC(=O)N1CCC[C@H]1[C@H](OC)[C@@H](C)C(=O)N[C@H](C)[C@@H](O)c1ccccc1)OC)N(C)C(=O)[C@@H](NC(=O)[C@H](C(C)C)N(C)C(=O)OCc1ccc(NC(=O)[C@H](CCCNC(N)=O)NC(=O)[C@@H](NC(=O)c2cc(NCCOCCC(=O)NCCNc3ncc(-c4cc(C)cc(F)c4)c(N4CCC(N)CC4)c3-c3nc4ccc(Cl)cc4[nH]3)cc(C(=O)NCCS(=O)(=O)O)c2)C(C)C)cc1)C(C)C` [Compound 187]: the EC50 in assay [1] was determined as 3.7 nM; in assay [2], 0.5 nM; in assay [3], 1800 nM.
For `CC[C@H](C)[C@@H]([C@@H](CC(=O)N1CCC[C@H]1[C@H](OC)[C@@H](C)C(=O)N[C@H](C)[C@@H](O)c1ccccc1)OC)N(C)C(=O)[C@@H](NC(=O)[C@H](C(C)C)N(C)C(=O)OCc1ccc(NC(=O)[C@H](CCCNC(N)=O)NC(=O)[C@@H](NC(=O)CCOCCOCCC(=O)NCCNc2ncc(-c3cc(C)cc(F)c3)c(N3CCC(N)CC3)c2-c2nc3ccc(Cl)cc3[nH]2)C(C)C)cc1C(=O)NCCCCCCCCCCC(=O)O)C(C)C` [Compound 75], in that order: 2.4 nM, 0.21 nM and 440 nM.
For `CC[C@H](C)[C@@H]([C@@H](CC(=O)N1CCC[C@H]1[C@H](OC)[C@@H](C)C(=O)N[C@H](C)[C@@H](O)c1ccccc1)OC)N(C)C(=O)[C@@H](NC(=O)[C@H](C(C)C)N(C)C(=O)OCc1ccc(NC(=O)[C@H](CCCNC(N)=O)NC(=O)[C@@H](NC(=O)[C@@H](CS(=O)(=O)O)NC(=O)CCOCCC(=O)NCCNc2ncc(-c3cc(C)cc(F)c3)c(N3CCC(N)CC3)c2-c2nc3ccc(Cl)cc3[nH]2)C(C)C)cc1C(=O)N1CC(C(=O)O)C1)C(C)C` [Compound 77], the EC50 in assay [1] worked out at 4.2 nM; in assay [2], 0.092 nM; in assay [3], 130 nM.
For `CC[C@H](C)[C@@H]([C@@H](CC(=O)N1CCC[C@H]1[C@H](OC)[C@@H](C)C(=O)N[C@H](C)[C@@H](O)c1ccccc1)OC)N(C)C(=O)[C@@H](NC(=O)[C@H](C(C)C)N(C)C(=O)OCc1ccc(NC(=O)[C@H](CCCNC(N)=O)NC(=O)[C@@H](NC(=O)C[C@@H](N)C(=O)NCCOCCC(=O)NCCNc2ncc(-c3cc(C)cc(F)c3)c(N3CCC(N)CC3)c2-c2nc3ccc(Cl)cc3[nH]2)C(C)C)c(O[C@@H](C)C(=O)O)c1)C(C)C` [Compound 200], the results for the EC50 in assay [1], in assay [2] and in assay [3] were 3.9 nM, 0.18 nM and 23 nM, respectively.
Consider `CC[C@H](C)[C@@H]([C@@H](CC(=O)N1CCC[C@H]1[C@H](OC)[C@@H](C)C(=O)N[C@H](C)[C@@H](O)c1ccccc1)OC)N(C)C(=O)[C@@H](NC(=O)[C@H](C(C)C)N(C)C(=O)OCc1ccc(NC(=O)[C@H](CCCNC(N)=O)NC(=O)[C@@H](NC(=O)[C@H](CCC(N)=O)NC(=O)CCOCCC(=O)NCCNc2ncc(-c3cc(C)cc(F)c3)c(N3CCC(N)CC3)c2-c2nc3ccc(Cl)cc3[nH]2)C(C)C)cc1C(=O)O)C(C)C` [Compound 5], for which the values for the EC50 in assay [1], in assay [2] and in assay [3] were 2.2 nM, 0.29 nM and 520 nM, respectively.
For `CC[C@H](C)[C@@H]([C@@H](CC(=O)N1CCC[C@H]1[C@H](OC)[C@@H](C)C(=O)N[C@H](C)[C@@H](O)c1ccccc1)OC)N(C)C(=O)[C@@H](NC(=O)[C@H](C(C)C)N(C)C(=O)OCc1ccc(NC(=O)[C@H](CCCNC(N)=O)NC(=O)[C@@H](NC(=O)CCOCCC(=O)NCCNc2ncc(-c3cc(C)cc(F)c3)c(N3CCC(N)CC3)c2-c2nc3ccc(Cl)cc3[nH]2)C(C)C)c(O[C@@H]2O[C@H](C(=O)N(C)CCS(=O)(=O)O)[C@@H](O)[C@H](O)[C@H]2O)c1)C(C)C` [Compound 218], in that order: 2.8 nM, 0.07 nM and 7 nM.
On to `CC[C@H](C)[C@@H]([C@@H](CC(=O)N1CCC[C@H]1[C@H](OC)[C@@H](C)C(=O)N[C@H](C)[C@@H](O)c1ccccc1)OC)N(C)C(=O)[C@@H](NC(=O)[C@H](C(C)C)N(C)C(=O)OCc1ccc(NC(=O)[C@H](CCCNC(N)=O)NC(=O)[C@@H](NC(=O)CCOCCC(=O)N(C)CC(=O)NCCNc2ncc(-c3cc(C)cc(F)c3)c(N3CCC(N)CC3)c2-c2nc3ccc(Cl)cc3[nH]2)C(C)C)c(O)c1)C(C)C` [Compound 199], for which the values for the concentration for a half-maximal effect (EC50) in assay [1], in assay [2] and in assay [3] were 4.1 nM, 0.071 nM and 8.9 nM, respectively.
For `CC[C@H](C)[C@@H]([C@@H](CC(=O)N1CCC[C@H]1[C@H](OC)[C@@H](C)C(=O)N[C@H](C)[C@@H](O)c1ccccc1)OC)N(C)C(=O)[C@@H](NC(=O)[C@H](C(C)C)N(C)C(=O)OCc1ccc(NC(=O)[C@H](CCCNC(N)=O)NC(=O)[C@@H](NC(=O)c2ccc(NC(=O)CCOCCOCCOCCOCCC(=O)NCCNc3ncc(-c4cc(C)cc(F)c4)c(N4CCC(N)CC4)c3-c3nc4ccc(Cl)cc4[nH]3)cc2O[C@@H]2OC(C(=O)O)[C@@H](O)[C@H](O)[C@H]2O)C(C)C)cc1)C(C)C` (stereo partly drawn) [Compound 183], in that order: 3.1 nM, 0.074 nM and 1000 nM.
Regarding `CC[C@H](C)[C@@H]([C@@H](CC(=O)N1CCC[C@H]1[C@H](OC)[C@@H](C)C(=O)N[C@H](C)[C@@H](O)c1ccccc1)OC)N(C)C(=O)[C@@H](NC(=O)[C@H](C(C)C)N(C)C(=O)OCc1ccc(NC(=O)[C@H](CCCNC(N)=O)NC(=O)[C@@H](NC(=O)CCOCCC(=O)NCCNc2ncc(-c3cc(C)cc(F)c3)c(N3CCC(N)CC3)c2-c2nc3ccc(Cl)cc3[nH]2)C(C)C)cc1C(=O)NOCCN)C(C)C` [Compound 88], the EC50 amounted to 3.1 nM in assay [1], 0.25 nM in assay [2] and 84 nM in assay [3].
For `CC[C@H](C)[C@@H]([C@@H](CC(=O)N1CCC[C@H]1[C@H](OC)[C@@H](C)C(=O)N[C@H](C)[C@@H](O)c1ccccc1)OC)N(C)C(=O)[C@@H](NC(=O)[C@H](C(C)C)N(C)C(=O)OCc1ccc(NC(=O)[C@H](C)NC(=O)[C@@H](NC(=O)CCOCCC(=O)NCCNc2ncc(-c3cc(C)cc(F)c3)c(N3CCC(N)CC3)c2-c2cc3ccc(C#N)cc3[nH]2)C(C)C)c(O[C@@H]2O[C@H](C(=O)O)[C@@H](O)[C@H](O)[C@H]2O)c1)C(C)C` [Compound 119], in that order: 11 nM, 0.11 nM and 34 nM.
On to `CC[C@H](C)[C@@H]([C@@H](CC(=O)N1CCC[C@H]1[C@H](OC)[C@@H](C)C(=O)N[C@H](C)[C@@H](O)c1ccccc1)OC)N(C)C(=O)[C@@H](NC(=O)[C@H](C(C)C)N(C)C(=O)OCc1ccc(NC(=O)[C@H](C)NC(=O)[C@@H](NC(=O)CCOCCOCCOCCOCCC(=O)NCCNc2ncc(-c3cc(C)cc(F)c3)c(N3CCC(N)CC3)c2-c2nc3ccc(Cl)cc3[nH]2)C(C)C)cc1C(=O)NCC(=O)O)C(C)C` [Compound 69], for which the EC50 in assay [1] came to 5.6 nM; in assay [2], 0.16 nM; in assay [3], 36 nM.
For `CC[C@H](C)[C@@H]([C@@H](CC(=O)N1CCC[C@H]1[C@H](OC)[C@@H](C)C(=O)N[C@H](C)[C@@H](O)c1ccccc1)OC)N(C)C(=O)[C@@H](NC(=O)[C@H](C(C)C)N(C)C(=O)OCc1ccc(NC(=O)[C@H](CCCNC(N)=O)NC(=O)[C@@H](NC(=O)c2cc(NCCOCCC(=O)NCCNc3ncc(-c4cc(C)cc(F)c4)c(N4CCC(N)CC4)c3-c3nc4ccc(Cl)cc4[nH]3)cc(C(=O)NCCC(=O)O)c2)C(C)C)cc1)C(C)C` [Compound 145], in that order: 17 nM, 0.38 nM and 78 nM.
For `CC[C@H](C)[C@@H]([C@@H](CC(=O)N1CCC[C@H]1[C@H](OC)[C@@H](C)C(=O)N[C@H](C)[C@@H](O)c1ccccc1)OC)N(C)C(=O)[C@@H](NC(=O)[C@H](C(C)C)N(C)C(=O)OCc1ccc(NC(=O)[C@H](CCCNC(N)=O)NC(=O)[C@@H](NC(=O)C[C@@H](N)C(=O)NCCOCCOCCOCCOCCC(=O)NCCNc2ncc(-c3cc(C)cc(F)c3)c(N3CCC(N)CC3)c2-c2nc3ccc(Cl)cc3[nH]2)C(C)C)c(OCC(=O)O)c1)C(C)C` [Compound 23], in that order: 20 nM, 0.29 nM and 32 nM.
For `CC[C@H](C)[C@@H]([C@@H](CC(=O)N1CCC[C@H]1[C@H](OC)[C@@H](C)C(=O)N[C@H](C)[C@@H](O)c1ccccc1)OC)N(C)C(=O)[C@@H](NC(=O)[C@H](C(C)C)N(C)C(=O)OCc1ccc(NC(=O)[C@H](CCCNC(N)=O)NC(=O)[C@@H](NC(=O)[C@@H](CS(=O)(=O)O)NC(=O)CCOCCC(=O)NCCNc2ncc(-c3cc(C)cc(F)c3)c(N3CCC(N)CC3)c2-c2nc3ccc(Cl)cc3[nH]2)C(C)C)cc1C(=O)NCCN)C(C)C` [Compound 29], in that order: 8.5 nM, 0.076 nM and 2.6 nM.
For the compound `CC[C@H](C)[C@@H]([C@@H](CC(=O)N1CCC[C@H]1[C@H](OC)[C@@H](C)C(=O)N[C@H](C)[C@@H](O)c1ccccc1)OC)N(C)C(=O)[C@@H](NC(=O)[C@H](C(C)C)N(C)C(=O)OCc1ccc(NC(=O)[C@H](CCCNC(N)=O)NC(=O)[C@@H](NC(=O)c2cc(NCCCCCC(=O)N(C)CC(=O)NCCNc3ncc(-c4cc(C)cc(F)c4)c(N4CCC(N)CC4)c3-c3nc4ccc(F)cc4[nH]3)cc(C(=O)NCC(=O)O)c2)C(C)C)cc1)C(C)C` [Compound 168], the EC50 in assay [1] was 5.8 nM; in assay [2] it was 0.17 nM; in assay [3], 34 nM.
